Measurements: patent publication US7851444B2 (priority 2002, dated 2010)

Test system: CCI rat
Conditions: in vivo

SMILES: CN1CC[C@]23c4c5ccc(O)c4O[C@H]2[C@@H](O)C=C[C@H]3[C@H]1C5 [morphine]
- antinociceptive effects in a rat model of neuropathic pain: produced antinociceptive effects
- duration of antinociceptive effects: 3 h
- selectivity of antinociceptive effects between paws: selective for the ipsilateral over the contralateral paw
